Test: Population pharmacokinetic analysis (Nonmem) in healthy volunteers and Alzheimer's and Parkinson's patients
Type: in vivo, human
Conditions: popPK
Experimental: Population pharmacokinetic analysis was conducted using data from healthy volunteers from Study 101 (single ascending dose study with 72 subjects) and Study 102 (multiple dose study with 48 volunteers) and in patients (multiple dose study in 68 patients with early Alzheimer’s or early Parkinson’s disease). Data were fit using a Bayesian approach as implemented in the software package Nonmem® (version 7.5.1, Icon Development Solutions, Dublin, Ireland). Standard model building approaches were used. After a base model was established, covariates were evaluated singly and assessed graphically using eta plots—The full model consisted of all statistically significant covariates identified during the single covariate evaluation phase, and back elimination was conducted. Each covariate was removed from the full model, and the impact of that removal was assessed based on model output. The final model performance was assessed graphically and using simulation with a visual predictive check (VPC). […]
The asymptotic standard errors (SEs) and nonparamet ric bootstrapped confidence intervals (CIs) estimated the parameter precision. Other model statistics were evaluated, such as etabar and associated p values. […]
substantial skewness or kurtosis; therefore, transforms were not evaluated. […]
Plasma concentration data were evaluated using an LTBS approach. […]

Q: With `CN1CC[C@]2(C)c3cc(OC(=O)Nc4ccccc4)ccc3N(C)C12.O=C(O)C(O)C(O)C(=O)O` (stereo partly drawn) [Posiphen, (3aR)-1,3a, 8-trimethyl-1,2,3,3a, 8,8a-hexahydropyrrolo (2,3-b) indol-5-yl phenylcarbamate tartrate] as the compound, how does the Km (human, plasma, oral, as dose increased from 0.04 to 2.4 mg/kg, read-out: Michaelis constant (km)) read?
A: 0.01 to 0.015 µg/mL

Q: And the “Variability in absorption, metabolism and clearance between healthy subjects and Alzheimer's or Parkinson's patients” value?
A: no variability

From paper PMC11117716 (Biomolecules, 2024)
